Test results published in patent US20220133894A1, “BISPHOSPHONATE-LINKED COMPOUNDS” (OREGON HEALTH & SCIENCE UNIVERSITY, priority 2019, published 2022).

Legend:
[1] = test system: human prostate and breast cancer; details: oral administration, nanomolar concentrations; cited from earlier work
PC3-M cells = assay: three-day MTT cell growth assay, chemotherapy with or without KBU2046; type: cell-based, human; details: 10 μM KBU2046, 3 day growth assay, androgen independent PC3-M cells
Procedure: FIG. 1A depicts the effect of chemotherapy on the growth of androgen independent PC3-M PCa cells in vitro. Data are the mean±SEM (N=3 replicates) of cell viability in a 3 day growth assay in the presence of 10 μM KBU2046 or vehicle (control) treated with docetaxel or cabazitaxel. FIG. 1B depicts the effect of chemotherapy on the growth of androgen independent PCa cells in vivo. Mice received subcutaneous implants of PC3-M cells, were monitored until tumors were detectable (250 mm^3), and then treated daily with oral 80 mg KBU2046/kg (46) or vehicle (CO) and with weekly intraperitoneal docetaxel (doc) at 0 or 20 mg/kg, beginning on day 1, and tumor size measured. Data are mean±SEM, with N=20 mice per cohort.
To assess the impact of cytotoxic chemotherapy on PCa growth kinetics seven-day soft agar colony formation assays and three-day MTT cell growth inhibition assays were performed as described by us (Pavese et al., Cancer Lett 352, 179-186 (2014)). MTT assays were in replicates of N=3, and were repeated, soft agar assays were in replicates of N=2 and are presented as mean number of colonies, expressed as percent of untreated controls.

LNCaP cells = assay: SRB growth inhibition assay, LNCaP; type: cell-based, human; details: 10 μM enzalutamide, 10 μM KBU2046 added to control or enzalutamide treated cells, 72 hours
Procedure: LNCaP or VCaP cells cultured in hormone free media were treated with R1881 (R), KBU2046 (46) and/or enzalutamide (E). (FIGS. 3A and 3B) Effects on AR-responsive gene expression. PSA expression was measured by qRT/PCR, normalized to GAPDH and expressed as a percent of control cells (N=3 replicates); * denotes P<0.05 for groups separated by bar. (FIGS. 3C and 3D) Effects on cell growth. Three day growth assays were performed. Data are the number of viable cells, expressed as % of control (N=3 replicates); * P<0.05 compared to control. (E) Effects on AR activation. Western blots of nuclear (N) and cytoplasmic (C) preparations of cell extracts were probed for AR, laminin 1 or α-tubulin. (FIGS. 3F and 3G) Effects on tumor outgrowth after androgen deprivation therapy. LNCaP/AR-luc cells were implanted subcutaneously (N=6 mice/cohort) or orthotopic (N=15 mice/cohort were implanted; N=5 yielded tumors) into castrate mice, treatment with KBU2046 began as noted, and weekly IVIS imaging performed. Data are tumor size, expressed as luminescence intensity. All data are expressed as mean±SEM.
Enzalutamide mediated growth inhibition was assessed using Sulforhodamine B (SRB) growth inhibition assays, were performed as previously described (49). In brief, LNCaP and VCaP cells were pre-incubated in charcoal-striped medium for 48 hours and then seeded (1.9×10^4) in 96-well plates. […]

LNCaP/AR-luc cells = assay: Castration resistant PCa subcutaneous implantation, tumor outgrowth; type: in vivo, mice; details: subcutaneous implants, 80 mg/kg KBU2046 oral, treatment from 4 weeks
Procedure: To complete our assessments of the androgen related paradigm, the effect of KBU2046 on resistance to hormone therapy was evaluated. The outgrowth of LNCaP/AR-luc cells in castrate mice is routinely utilized as a model to emulate the transition to a castration resistant phenotype (Tran et al., Science 324, 787-790 (2009)). In this model, tumor outgrowth is detectable ˜8 weeks post implantation, and growth kinetics are typically monitored until 16 weeks post implantation. […]
LNCaP or VCaP cells cultured in hormone free media were treated with R1881 (R), KBU2046 (46) and/or enzalutamide (E). […] PSA expression was measured by qRT/PCR, normalized to GAPDH and expressed as a percent of control cells (N=3 replicates); * denotes P<0.05 for groups separated by bar. […] Data are the number of viable cells, expressed as % of control (N=3 replicates); * P<0.05 compared to control. […] Data are tumor size, expressed as luminescence intensity. All data are expressed as mean±SEM.
Castration resistant PCa subcutaneous implantation: 6-7 week old male athymic mice received trans-scrotal bilateral orchiectomy with a single incision in the midline of scrotums under general anesthesia and then allowed to recover for 10 days. […] Twice weekly tumor measurements were performed and androgen receptor activity monitored biweekly through IVIS imaging.

Compound: O=C1c2ccccc2OCC1c1ccc(F)cc1 (stereo not drawn) [KBU2046, 3-(4-fluorophenyl)chroman-4-one]
- bone destruction [1]: decreases
- metastasis [1]: inhibits
- survival [1]: prolongs
- effect of KBU2046 on the ability of docetaxel or cabazitaxel to inhibit cell growth (PC3-M cells): did not affect
- cell growth (LNCaP cells): no significant effect
- tumor growth (outgrowth in castrate mice) (LNCaP/AR-luc cells): did not alter
